This is an account of results in US9204653B2, “5-fluoro pyrimidine derivatives” (DOW AGROSCIENCES LLC, priority 2008, dated 2015).

Molecules are shown by their SMILES. Like-named read-outs stand apart in the source and are kept apart here.

The subject of this test is Mycosphaerella graminicola; Anamorph: Septoria tritici; Bayer Code SEPTTR. Nature of the test: Leaf blotch of wheat, foliar fungicide treatment, one day protectant (1DP) or three day curative (3DC). The test is classed as in vivo, Septoria tritici on wheat plants (variety Yuma). The settings on record: Zymoseptoria tritici; for pest or weed control at 50 ppm / pest or weed control at 200 ppm: % disease control rating.

Setting [1] is: 24 h, one day protectant, 25 ppm, rating of percent disease control, read-out: SETTTR 1DP 25 ppm.
Where [2] appears, read: 24 h, one day protectant, rating of percent disease control, read-out: SEPTTR 1DP 100 ppm.
The mark [3] stands for this setting: 72 h, three day curative, 25 ppm, rating of percent disease control, read-out: SEPTTR 3DC 25 ppm.
[4] abbreviates: 72 h, three day curative, rating of percent disease control, read-out: SEPTTR 3DC 100 ppm.
[5] abbreviates: 24 h, one day protectant (1DP), 25 ppm, rating of percent disease control, read-out: SETTTR 1DP 25 ppm.
Where [6] appears, read: 24 h, one day protectant (1DP), rating of percent disease control, read-out: SEPTTR 1DP 100 ppm.
The mark [7] stands for this setting: 72 h, three day curative (3DC), 25 ppm, rating of percent disease control, read-out: SEPTTR 3DC 25 ppm.
Where [8] appears, read: 72 h, three day curative (3DC), rating of percent disease control, read-out: SEPTTR 3DC 100 ppm.
The mark [9] stands for this setting: 24 h, one day protectant (1DP), 25 ppm (first 1DP column), percent control rating, read-out: SETTTR 1DP 25 ppm.
Where [10] appears, read: 24 h, one day protectant (1DP), 25 ppm as printed (second 1DP column), percent control rating, read-out: SETTTR 1DP 25 ppm.
The mark [11] stands for this setting: 72 h, three day curative (3DC), 25 ppm, percent control rating, read-out: SEPTTR 3DC 25 ppm.
The mark [12] stands for this setting: 72 h, three day curative (3DC), percent control rating, read-out: SEPTTR 3DC 100 ppm.
Where [13] appears, read: 24 h, one day protectant (1DP), 25 ppm, percent disease control rating, read-out: SETTTR 1DP 25 ppm.
Setting [14] is: 24 h, one day protectant (1DP), percent disease control rating, read-out: SEPTTR 1DP 100 ppm.
Setting [15] is: 72 h, three day curative (3DC), 25 ppm, percent disease control rating, read-out: SEPTTR 3DC 25 ppm.
[16] abbreviates: 72 h, three day curative (3DC), percent disease control rating, read-out: SEPTTR 3DC 100 ppm.

For `CCCNC(=S)Nc1nc(OCc2ccccc2)ncc1F` [Compound 678], the pest or weed control at 25 ppm was 0 to 25% under setting [1] and 26 to 50% under setting [3]. The pest or weed control at 100 ppm is, setting by setting: under setting [2], 76 to 100%; under setting [4], 76 to 100%.

Where the note is “24 h, one day protectant”, `Fc1cnc(OCc2cccs2)nc1NC1CC1` [Compound 866] gave a pest or weed control at 50 ppm of 0 to 25% and a pest or weed control at 200 ppm of 76 to 100%.

Consider `Nc1nc(OCc2cccc(O)c2)ncc1F` [Compound 423], for which the pest or weed control at 25 ppm by setting is: under setting [5], 0 to 25%; under setting [7], 0 to 25%. Further, the pest or weed control at 100 ppm was 0 to 25% under setting [6] and 0 to 25% under setting [8].

Consider `CCOCNc1nc(OCc2ccccc2OC)ncc1F` [Compound 331], for which the pest or weed control at 25 ppm was in the range of 76 to 100% under setting [5] and 76 to 100% under setting [7]. The pest or weed control at 100 ppm lay in the range of 76 to 100% under setting [6] and 76 to 100% under setting [8].

For the setting “24 h, one day protectant”, `Cc1ccc(CNc2nc(OCc3ccc(F)cc3)ncc2F)cc1` [Compound 951] came in with a pest or weed control at 50 ppm of 51 to 75% and a pest or weed control at 200 ppm of 76 to 100%.

As for `CCOC(=O)CCC(=O)NNc1nc(OCc2ccccc2)ncc1F` [Compound 344], the pest or weed control at 25 ppm fell in the range of 26 to 50% under setting [5] and 0 to 25% under setting [7]. The pest or weed control at 100 ppm runs as follows: under setting [6], 26 to 50%; under setting [8], 26 to 50%.

Turning to `COc1ccccc1COc1ncc(F)c(NC(=O)c2ccccc2)n1` [Compound 676], the pest or weed control at 25 ppm under setting [1] was in the range of 26 to 50% and the pest or weed control at 25 ppm under setting [3] fell in the range of 0 to 25%. For the same compound, the pest or weed control at 100 ppm under setting [2] is 76 to 100% and the pest or weed control at 100 ppm under setting [4] was 0 to 25%.

For the compound `Fc1cnc(OCC(F)(F)F)nc1NCc1ccc(Cl)cc1` [Compound 905], under “24 h, one day protectant”, the pest or weed control at 50 ppm was 26 to 50% and the pest or weed control at 200 ppm was in the range of 51 to 75%.

As to `COc1cccc(COc2ncc(F)c(N)n2)c1F` [Compound 794], the pest or weed control at 25 ppm under setting [5] fell in the range of 76 to 100% and the pest or weed control at 25 ppm under setting [7] was in the range of 76 to 100%. The pest or weed control at 100 ppm runs as follows: under setting [6], 76 to 100%; under setting [8], 76 to 100%.

Turning to `Oc1ncc(F)c(N/N=C/c2ccccc2Cl)n1` [Compound 1118], the pest or weed control at 25 ppm was 0 to 25% under setting [9], 0 to 25% under setting [10] and 0 to 25% under setting [11]. Moreover, the pest or weed control at 100 ppm under setting [12] fell in the range of 0 to 25%.

As for `Fc1cccc(COc2ncc(F)c(NCOCc3ccccc3)n2)c1` [Compound 458], the pest or weed control at 25 ppm by setting is: under setting [5], 0 to 25%; under setting [7], 0 to 25%. The pest or weed control at 100 ppm under setting [6] lay within 51 to 75% and the pest or weed control at 100 ppm under setting [8] lay in the range of 0 to 25%.

With `CCOC(=O)Nc1nc(OCc2cccc(F)c2)ncc1F` [Compound 633], the pest or weed control at 25 ppm by setting is: under setting [1], 76 to 100%; under setting [3], 76 to 100%. Besides, the pest or weed control at 100 ppm fell in the range of 76 to 100% under setting [2] and 76 to 100% under setting [4].

Take `O=C(Nc1ccccc1F)Nc1nc(OCc2ccccc2)ncc1F` [Compound 291]: the pest or weed control at 25 ppm lay in the range of 0 to 25% under setting [5] and 0 to 25% under setting [7]. Further, the pest or weed control at 100 ppm under setting [6] lay in the range of 0 to 25% and the pest or weed control at 100 ppm under setting [8] is 26 to 50%.

On to `Cc1ccc(COc2ncc(F)c(NO)n2)cc1` [Compound 325], for which the pest or weed control at 25 ppm runs as follows: under setting [5], 76 to 100%; under setting [7], 76 to 100%. For the same compound, the pest or weed control at 100 ppm lay within 76 to 100% under setting [6] and 76 to 100% under setting [8].

Turning to `Nc1nc(OCc2cccc3ccsc23)ncc1F` [Compound 381], the pest or weed control at 25 ppm runs as follows: under setting [5], 76 to 100%; under setting [7], 76 to 100%. In addition, the pest or weed control at 100 ppm is 76 to 100% under setting [6] and 76 to 100% under setting [8].

`Nc1nc(OCC2CCCCC2)ncc1F` [Compound 846]: under “24 h, one day protectant”, the pest or weed control at 50 ppm was 0 to 25% and the pest or weed control at 200 ppm was 26 to 50%.

As for `Fc1cnc(OCc2ccccc2)nc1/N=N/c1cccc(C(F)(F)F)c1` [Compound 958], the pest or weed control at 25 ppm under setting [9] lay within 0 to 25%, the pest or weed control at 25 ppm under setting [10] is 0 to 25% and the pest or weed control at 25 ppm under setting [11] is 26 to 50%. Under setting [12], the pest or weed control at 100 ppm was in the range of 26 to 50%.

Under “24 h, one day protectant”, `Fc1cnc(OCc2ccccn2)nc1NCc1ccc(Cl)cc1` [Compound 935] displayed a pest or weed control at 50 ppm of 26 to 50% and a pest or weed control at 200 ppm of 76 to 100%.

For the setting “24 h, one day protectant”, `Fc1ccccc1CNc1nc(OCc2ccc(Cl)cc2)ncc1F` [Compound 918] had a pest or weed control at 50 ppm of 76 to 100% and a pest or weed control at 200 ppm of 76 to 100%.

Turning to `O=S(=O)(Nc1nc(OCc2ccc(F)cc2)ncc1F)c1ccccc1` [Compound 1005], the pest or weed control at 25 ppm is, setting by setting: under setting [9], 0 to 25%; under setting [10], 0 to 25%; under setting [11], 0 to 25%. Under setting [12], the pest or weed control at 100 ppm is 0 to 25%.

In the case of `Nc1nc(OS(=O)(=O)c2ccccc2)ncc1F` [Compound 29, Benzenesulfonic acid 4-amino-5-fluoropyrimidin-2-yl ester], the pest or weed control at 25 ppm is, setting by setting: under setting [13], 76 to 100%; under setting [15], 51 to 75%. For the same compound, the pest or weed control at 100 ppm is 76 to 100% under setting [14] and 76 to 100% under setting [16].

Consider `CC(C)NC(=O)Nc1nc(O)ncc1F` [Compound 971], for which the pest or weed control at 25 ppm is 26 to 50% under setting [9], 26 to 50% under setting [10] and 51 to 75% under setting [11]. Also, the pest or weed control at 100 ppm under setting [12] fell in the range of 76 to 100%.

On to `Fc1ccccc1NNc1nc(OCc2ccccc2)ncc1F` [Compound 1028], for which the pest or weed control at 25 ppm under setting [9] lay within 0 to 25%, the pest or weed control at 25 ppm under setting [10] fell in the range of 0 to 25% and the pest or weed control at 25 ppm under setting [11] lay in the range of 0 to 25%. The pest or weed control at 100 ppm under setting [12] lay in the range of 0 to 25%.

For the compound `C/C(=N\Oc1ncc(F)c(N)n1)c1ccc(F)cc1` [Compound 72], the pest or weed control at 25 ppm lay in the range of 76 to 100% under setting [13] and 76 to 100% under setting [15]. The pest or weed control at 100 ppm under setting [14] was 76 to 100% and the pest or weed control at 100 ppm under setting [16] was 76 to 100%.

As to `CC[Si](CC)(CC)Nc1nc(OCc2ccc(OC)c(F)c2)ncc1F` [Compound 702], the pest or weed control at 25 ppm runs as follows: under setting [1], 76 to 100%; under setting [3], 76 to 100%. For the same compound, the pest or weed control at 100 ppm runs as follows: under setting [2], 76 to 100%; under setting [4], 76 to 100%.

Turning to `Nc1nc(OCc2cccc(C(F)(F)F)c2F)ncc1F` [Compound 144], the pest or weed control at 25 ppm is, setting by setting: under setting [13], 76 to 100%; under setting [15], 76 to 100%. The pest or weed control at 100 ppm lay in the range of 76 to 100% under setting [14] and 76 to 100% under setting [16].

Turning to `CC#CCOc1ncc(F)c(NCO)n1` [Compound 559], the pest or weed control at 25 ppm reads like this: under setting [1], 51 to 75%; under setting [3], 76 to 100%. Also, the pest or weed control at 100 ppm is 76 to 100% under setting [2] and 76 to 100% under setting [4].

Take `COc1cccc(COc2ncc(F)c(OC)n2)c1` [Compound 269]: the pest or weed control at 25 ppm reads like this: under setting [5], 0 to 25%; under setting [7], 0 to 25%. Moreover, the pest or weed control at 100 ppm is, setting by setting: under setting [6], 0 to 25%; under setting [8], 0 to 25%.

`Cc1ccc(NC(=O)Nc2nc(O)ncc2F)cc1` [Compound 968]: the pest or weed control at 25 ppm under setting [9] is 51 to 75%, the pest or weed control at 25 ppm under setting [10] lay in the range of 51 to 75% and the pest or weed control at 25 ppm under setting [11] was 51 to 75%. For the same compound, under setting [12], the pest or weed control at 100 ppm was in the range of 51 to 75%.

Take `COc1cccc(COc2ncc(F)c(N(C)N)n2)c1` [Compound 608]: the pest or weed control at 25 ppm runs as follows: under setting [1], 51 to 75%; under setting [3], 51 to 75%. Moreover, the pest or weed control at 100 ppm was in the range of 76 to 100% under setting [2] and 76 to 100% under setting [4].

With `CC(C)(C)C(=O)OCOc1ncc(F)c(N)n1` [Compound 1119], the pest or weed control at 25 ppm under setting [9] fell in the range of 76 to 100%, the pest or weed control at 25 ppm under setting [10] lay in the range of 76 to 100% and the pest or weed control at 25 ppm under setting [11] was in the range of 76 to 100%. Besides, under setting [12], the pest or weed control at 100 ppm is 76 to 100%.

For the setting “24 h, one day protectant”, `Fc1ccccc1CNc1nc(OCc2ccco2)ncc1F` [Compound 817] gave a pest or weed control at 50 ppm of 26 to 50% and a pest or weed control at 200 ppm of 76 to 100%.

Turning to `COc1ccc(S(=O)(=O)Oc2ncc(F)c(/N=C/N(C)C)n2)cc1` [Compound 264], the pest or weed control at 25 ppm fell in the range of 51 to 75% under setting [5] and 76 to 100% under setting [7]. The pest or weed control at 100 ppm under setting [6] fell in the range of 76 to 100% and the pest or weed control at 100 ppm under setting [8] was 76 to 100%.

As to `CSCCOc1ncc(F)c(N)n1` [Compound 625], the pest or weed control at 25 ppm runs as follows: under setting [1], 0 to 25%; under setting [3], 0 to 25%. Also, the pest or weed control at 100 ppm lay in the range of 26 to 50% under setting [2] and 26 to 50% under setting [4].
